Test results taken from patent US20160223554A1, “METHODS FOR DIAGNOSIS, PROGNOSIS AND METHODS OF TREATMENT” (priority 2011, published 2016).

B1: IFNg: cytokine modulator of Jak/Stat pathway (protein, UniProt P01579 24-161, looked up)
Interferon gamma: QDPYVKEAENLKKYFNAGHSDVADNGTLFLGILKNWKEESDRKIMQSQIVSFYFKLFKNFKDDQSIQKSVETIKEDMNVKFFNSNKKKRDDFEKLTNYSVTDLNVQRKAIHELIQVMAELSPAAKTGKRKRSQMLFRG

Legend:
Type in all cases: cell-based, human
[1] = system: AML blasts; test: In vitro drug-induced apoptosis (c-PARP, amine aqua) in primary AML samples (Example 20)
Method: Cryopreserved peripheral blood (PBMC) or bone marrow (BMMC) mononuclear cells were obtained from patients with a new diagnosis of AML treated at British Columbia Cancer Agency or Lucile Packard Children's Hospital at Stanford University. All patients provided informed consent for research purposes. Samples were processed (thawed, modulated, fixed, permeabilized, and incubated with antibodies to both surface and intracellular proteins) as previously described (Kornblau, Minden et al., Dynamic single-cell network profiles in acute myelogenous leukemia are associated with patient response to standard induction therapy, 2010, Journal/Clin Cancer Res, 16, 14, 3721-3733; Rosen, Minden et al., Functional characterization of FLT3 receptor signaling deregulation in acute myeloid leukemia by single cell network profiling (SCNP), 2010, Journal/PLoS One, 5, 10, e13543). In this study, cellular DNA damage repair (DDR) and apoptosis were measured simultaneously in AML blasts after exposure to chemotherapeutic agents. Antibodies against phosphorylated (p)-H2AX or p-Chk2 were used to measure the DDR to DSB, while simultaneous measurements of cleaved PARP (c-PARP) and amine aqua viability dye were used to quantify apoptosis and cell death. Chemotherapeutics included Ara-C/Dauno (the two drugs currently used in standard AML induction therapy), Gemtuzumab Ozogamicin (GO), and three other agents currently being evaluated in AML clinical trials [Decitabine (DEC), 5-azacytidine (AZA) and Clofarabine (CLO)]. […] Drug-specific incubation times were chosen to analyze both DDR and apoptosis readouts: Ara-C/Dauno (24 hours), GO, CLO, AZA, DEC (48 hours). […] Similarly, apoptosis responses were not observed for DEC until 48 hours and were higher for AZA at 48 hours (data not shown). PI3Kinase/Akt and Raf/Ras pathway activities were assessed using stem cell factor (SCF) induced p-Akt and p-Erk readouts. Data was acquired on an LSRII flow cytometer and leukemic cells were identified by CD45 versus right-angle light-scatter. Metrics for DDR (Log2Fold) and induced apoptosis have been described previously (Rosen, Putta et al., Distinct patterns of DNA damage response and apoptosis correlate with Jak/Stat and PI3kinase response profiles in human acute myelogenous leukemia, 2010, Journal/PLoS One, 5, 8, e12405).

[2] = system: AML blasts; test: SCNP phospho-flow signaling nodes in AML PBMC (Example 2, Study No. 1); details: for Mean Value of CRs: CR patients; for Mean Value of CRs / Mean Value of NRs: Study No. 1; for Mean Value of NRs: NR patients
Method: Frozen cells are thawed in a 37° C. water bath and gently resuspended in the vial and transferred to the 15 mL conical tube. The 15 mL tube is centrifuged at 930 RPM (200×g) for 8 minutes at room temperature. The supernatant is aspirated and the pellet is gently resuspended in 1 mL media A. The cell suspension is filtered through a 70 um cell strainer into a new 15 mL tube. The cell strainer is rinsed with 1 mL media A and another 12 ml of media A into the 15 mL tube. The cells are mixed into an even suspension. A 20 μL aliquot is immediately removed into a 96-well plate containing 180 μL PBS+4% FBS+CD45 Alexa 700+PI to determine cell count and viability post spin. After the determination, the 15 mL tubes are centrifuged at 930 RPM (200×g) for 8 minutes at room temperature. The supernatant is aspirated and the cell pellet is gently resuspended in 4 mL PBS+4 μL Amine Aqua and incubated for 15 min in a 37° C. incubator. 10 mL RPMI+1% FBS is added to the cell suspension and the tube is inverted to mix the cells. The 15 mL tubes are centrifuged at 930 RPM (200×g) for 8 minutes at room temperature. The cells are resuspended in Media A at the desired cell concentration (1.25×10^6/mL). For samples with low numbers of cells (<18.5×10^6), the cells are resuspended in up to 15 mL media. For samples with high numbers of cells (>18.5×10^6), the volume is raised to 10 mL with media A and the desired volume is transferred to a new 15 mL tube, and the cell concentration is adjusted to 1.25×10^6 cells/ml. 1.6 mL of the above cell suspension (concentration at 1.25×10^6 cells/ml) is transferred into wells of a multi-well plate. From this plate, 80 ul is dispensed into each well of a subsequent plate. The plates are covered with a lid (Nunc) and placed in a 37° C. incubator for 2 hours to rest.
A concentration for each stimulant that is five folds more (5×) than the final concentration is prepared using Media A as diluent. 5× stimuli are arrayed into wells of a standard 96 well v-bottom plate that correspond to the wells on the plate with cells to be stimulated.
Adding the stimulant: The cell plate(s) are taken out of the incubator and placed in a 37° C. water bath next to the pipette apparatus. The cell plate is taken from the water bath and gently swirled to resuspend any settled cells. With pipettor, the stimulant is dispensed into the cell plate and vortexed at “7” for 5 seconds. The deep well plate is put back into the water bath.
The plate is covered with foil sealer and incubated in a 37° C. water bath for 10 minutes. The plate is spun for 6 minutes at 2000 rpm at room temperature. The cells are aspirated using a 96 well plate aspirator (VP Scientific). The plate is vortexed to resuspend cell pellets in the residual volume. The pellet is ensured to be dispersed before the Methanol step (see cell permeabilization) or clumping will occur.
Cell Permeabilization: Permeability agent, for example methanol, is added slowly and while the plate is vortexing. To do this, the cell plate is placed on titer plate shaker and made sure it is secure. The plate is set to shake using the highest setting. A pipetter is used to add 0.6 mls of 100% methanol to the plate wells. The plate(s) are put on ice until this step has been completed for all plates. Plates are covered with a foil seal using the plate roller to achieve a tight fit. At this stage the plates can be stored at −80° C.
Cells are thawed if frozen. Cells are pelleted at 2000 rpm 5 minutes. Supernatant is aspirated with vacuum aspirator. Plate is vortexed on a “plate vortex” for 5-10 seconds. Cells are washed with 1 mL FACS buffer. Repeat the spin, aspirate and vortex steps as above. 50 μL of FACS/stain buffer with the desired, previously optimized, antibody cocktail is added to two rows of cells at a time and agitate the plate. The plate is covered and incubated in a shaker for 30 minutes at room temperature (RT). During this incubation, the compensation plate is prepared.

[3] = system: AML blasts; test: SCNP signaling and apoptosis nodes in AML BMMC (Example 4, Study No. 2); details: for Mean Value of CRs, p-Stat3 TotalPhospho / Mean Value of NRs, p-Stat3 TotalPhospho / Mean Value of CRs, p-Stat1 Fold / Mean Value of CRs, p-Stat3 Fold / Mean Value of CRs, p-Stat5 Fold / Mean Value of NRs, p-Stat1 Fold / Mean Value of NRs, p-Stat3 Fold / Mean Value of NRs, p-Stat5 Fold / Mean Value of CRs, p-Stat1 TotalPhospho / Mean Value of NRs, p-Stat1 TotalPhospho: Study No.2
[4] = Total Phospho metric, Study No. 1, CRp patient included in NR group
[5] = read-out p-Stat3, metric TotalPhospho
[6] = patients less than 60 years old
[7] = read-out p-CREB, metric TotalPhospho
[8] = Fold metric, all patients, Study No. 2
[9] = TotalPhospho metric, all patients, Study No. 2
[10] = read-out p-Stat1, metric TotalPhospho
[11] = Fold metric, Study No. 1, CRp patient included in NR group

| Molecule | Mean Value of CRs, p-Stat3 [2, 4] | Mean Value of NRs, p-Stat3 [2, 4] | Mean Value of CRs [2, 5] | Mean Value of NRs [2, 5] | Mean Value of CRs, p-Stat3 TotalPhospho [3, 6] | Mean Value of NRs, p-Stat3 TotalPhospho [3, 6] | Mean Value of CRs, p-Stat3 TotalPhospho ([3]; patients with De Novo AML) | Mean Value of NRs, p-Stat3 TotalPhospho ([3]; patients with De Novo AML) | Mean Value of CRs, p-Stat3 [3, 8] | Mean Value of CRs, p-Stat5 [3, 8] | Mean Value of NRs, p-Stat3 [3, 8] | Mean Value of NRs, p-Stat5 [3, 8] | Mean Value of CRs, p-Stat1 Fold [3, 6] | Mean Value of CRs, p-Stat5 Fold [3, 6] | Mean Value of NRs, p-Stat1 Fold [3, 6] | Mean Value of NRs, p-Stat5 Fold [3, 6] | Mean Value of CRs, p-Stat5 Fold ([3]; patients with De Novo AML) | Mean Value of NRs, p-Stat5 Fold ([3]; patients with De Novo AML) | Mean Value of CRs, p-Stat3 Fold ([3]; patients with De Novo AML) | Mean Value of NRs, p-Stat3 Fold ([3]; patients with De Novo AML) | other results |
| --- | --- | --- | --- | --- | --- | --- | --- | --- | --- | --- | --- | --- | --- | --- | --- | --- | --- | --- | --- | --- | --- |
| Nc1ncn([C@H]2C[C@H](O)[C@@H](CO)O2)c(=O)n1 [DEC] |  |  |  |  |  |  |  |  |  |  |  |  |  |  |  |  |  |  |  |  | cells induced to undergo apoptosis ([1]; sample COG-06 (MDR+), 48 hours, CLO 0.25 μM, AZA 2.5 μM, DEC 0.625 μM): 55.8%; Apo ([1]; sample COG-06, 48 hour treatment): + (For Apo, “+” signifies induced apoptosis >50%.); cells undergoing apoptosis ([1]; sample COG-07, 48 hours, CLO 0.25 μM, AZA 2.5 μM, DEC 0.625 μM): 29%; apoptotic cells ([1]; sample COG-09, 48 hours, CLO 0.25 μM, AZA 2.5 μM, DEC 0.625 μM): 5% |
| GM-CSF | 0.83 | 1.23 | 0.84 | 1.24 | 1.51 | 2.35 | 1.51 | 2.22 |  |  |  |  |  |  |  |  |  |  |  |  |  |
| IL-6: cytokine modulator | 1.08 | 1.81 | 1.08 | 1.84 | 1.77 | 4.10 | 1.7 | 3.22 | 0.12 | 0.13 | 1.09 | 0.55 | −0.02 | 0.11 | 0.3 | 0.58 | 0.12 | 0.47 |  |  | Mean Value of CRs, p-CREB [2, 4]: 1.58; Mean Value of NRs, p-CREB [2, 4]: 2.44; Mean Value of CRs [2, 7]: 1.70; Mean Value of NRs [2, 7]: 2.43; Mean Value of CRs, p-Stat1 [3, 8]: −0.01; Mean Value of NRs, p-Stat1 [3, 8]: 0.26; Mean Value of CRs, p-Stat3 Fold [3, 6]: 0.13; Mean Value of NRs, p-Stat3 Fold [3, 6]: 1.67; Mean Value of CRs, p-Stat1 Fold ([3]; patients with De Novo AML): 0.00; Mean Value of CRs, p-Stat1 TotalPhospho ([3]; patients with De Novo AML): 1.06; Mean Value of NRs, p-Stat1 Fold ([3]; patients with De Novo AML): 0.19; Mean Value of NRs, p-Stat1 TotalPhospho ([3]; patients with De Novo AML): 1.67; Mean Value of CRs, p-Stat3 [3, 9]: 1.76; Mean Value of NRs, p-Stat3 [3, 9]: 2.98 |
| IL-10: cytokine modulator | 0.72 | 1.69 | 0.82 | 1.69 | 1.67 | 2.90 | 1.63 | 2.68 | 0.08 | 0.09 | 0.39 | 0.43 |  |  |  |  | 0.0 | 0.43 | 0.05 | 0.45 | Mean Value of CRs [2, 10]: 0.20; Mean Value of NRs [2, 10]: 0.47 |
| B1 | 0.68 | 1.3 | 0.74 | 1.30 | 1.60 | 2.71 | 1.59 | 2.48 |  |  |  |  | 1.35 | 0.68 | 2.96 | 1.67 |  |  | −0.04 | 0.24 | Mean Value of CRs, p-Stat1 [2, 11]: 0.45; Mean Value of NRs, p-Stat1 [2, 11]: 0.91; Mean Value of CRs, p-Stat1 [2, 4]: 0.67; Mean Value of CRs, p-Stat5 [2, 4]: 1.62; Mean Value of NRs, p-Stat1 [2, 4]: 1.27; Mean Value of NRs, p-Stat5 [2, 4]: 2.35; Mean Value of CRs ([2]; read-out p-Stat1, metric Fold): 0.53; Mean Value of NRs ([2]; read-out p-Stat1, metric Fold): 0.90; Mean Value of CRs, p-Stag [3, 8]: −0.02; Mean Value of NRs, p-Stag [3, 8]: 0.2; Mean Value of CRs, p-Stat1 TotalPhospho [3, 6]: 2.40; Mean Value of NRs, p-Stat1 TotalPhospho [3, 6]: 4.13 |
